Results on 24 compounds are retold here after US8143408B2, “N-(8-heteroaryltetrahydronaphtalene-2yl) or N-(5-heteroarylchromane-3-yl) carboxamide derivatives for the treatment of pain” (AstraZeneca AB, priority 2007, dated 2012).

Broadly, the IC50 is the concentration that gives 50% inhibition.

The experiment deals with T1, Nav1.7 voltage-gated sodium channel (Homo sapiens, UniProt Q15858).
T1 construct: Gene(s) encoding the full-length protein of the voltage-gated sodium channel of interest are cloned and expressed; expressed in transfected cells
T1 sequence (Q15858 whole entry): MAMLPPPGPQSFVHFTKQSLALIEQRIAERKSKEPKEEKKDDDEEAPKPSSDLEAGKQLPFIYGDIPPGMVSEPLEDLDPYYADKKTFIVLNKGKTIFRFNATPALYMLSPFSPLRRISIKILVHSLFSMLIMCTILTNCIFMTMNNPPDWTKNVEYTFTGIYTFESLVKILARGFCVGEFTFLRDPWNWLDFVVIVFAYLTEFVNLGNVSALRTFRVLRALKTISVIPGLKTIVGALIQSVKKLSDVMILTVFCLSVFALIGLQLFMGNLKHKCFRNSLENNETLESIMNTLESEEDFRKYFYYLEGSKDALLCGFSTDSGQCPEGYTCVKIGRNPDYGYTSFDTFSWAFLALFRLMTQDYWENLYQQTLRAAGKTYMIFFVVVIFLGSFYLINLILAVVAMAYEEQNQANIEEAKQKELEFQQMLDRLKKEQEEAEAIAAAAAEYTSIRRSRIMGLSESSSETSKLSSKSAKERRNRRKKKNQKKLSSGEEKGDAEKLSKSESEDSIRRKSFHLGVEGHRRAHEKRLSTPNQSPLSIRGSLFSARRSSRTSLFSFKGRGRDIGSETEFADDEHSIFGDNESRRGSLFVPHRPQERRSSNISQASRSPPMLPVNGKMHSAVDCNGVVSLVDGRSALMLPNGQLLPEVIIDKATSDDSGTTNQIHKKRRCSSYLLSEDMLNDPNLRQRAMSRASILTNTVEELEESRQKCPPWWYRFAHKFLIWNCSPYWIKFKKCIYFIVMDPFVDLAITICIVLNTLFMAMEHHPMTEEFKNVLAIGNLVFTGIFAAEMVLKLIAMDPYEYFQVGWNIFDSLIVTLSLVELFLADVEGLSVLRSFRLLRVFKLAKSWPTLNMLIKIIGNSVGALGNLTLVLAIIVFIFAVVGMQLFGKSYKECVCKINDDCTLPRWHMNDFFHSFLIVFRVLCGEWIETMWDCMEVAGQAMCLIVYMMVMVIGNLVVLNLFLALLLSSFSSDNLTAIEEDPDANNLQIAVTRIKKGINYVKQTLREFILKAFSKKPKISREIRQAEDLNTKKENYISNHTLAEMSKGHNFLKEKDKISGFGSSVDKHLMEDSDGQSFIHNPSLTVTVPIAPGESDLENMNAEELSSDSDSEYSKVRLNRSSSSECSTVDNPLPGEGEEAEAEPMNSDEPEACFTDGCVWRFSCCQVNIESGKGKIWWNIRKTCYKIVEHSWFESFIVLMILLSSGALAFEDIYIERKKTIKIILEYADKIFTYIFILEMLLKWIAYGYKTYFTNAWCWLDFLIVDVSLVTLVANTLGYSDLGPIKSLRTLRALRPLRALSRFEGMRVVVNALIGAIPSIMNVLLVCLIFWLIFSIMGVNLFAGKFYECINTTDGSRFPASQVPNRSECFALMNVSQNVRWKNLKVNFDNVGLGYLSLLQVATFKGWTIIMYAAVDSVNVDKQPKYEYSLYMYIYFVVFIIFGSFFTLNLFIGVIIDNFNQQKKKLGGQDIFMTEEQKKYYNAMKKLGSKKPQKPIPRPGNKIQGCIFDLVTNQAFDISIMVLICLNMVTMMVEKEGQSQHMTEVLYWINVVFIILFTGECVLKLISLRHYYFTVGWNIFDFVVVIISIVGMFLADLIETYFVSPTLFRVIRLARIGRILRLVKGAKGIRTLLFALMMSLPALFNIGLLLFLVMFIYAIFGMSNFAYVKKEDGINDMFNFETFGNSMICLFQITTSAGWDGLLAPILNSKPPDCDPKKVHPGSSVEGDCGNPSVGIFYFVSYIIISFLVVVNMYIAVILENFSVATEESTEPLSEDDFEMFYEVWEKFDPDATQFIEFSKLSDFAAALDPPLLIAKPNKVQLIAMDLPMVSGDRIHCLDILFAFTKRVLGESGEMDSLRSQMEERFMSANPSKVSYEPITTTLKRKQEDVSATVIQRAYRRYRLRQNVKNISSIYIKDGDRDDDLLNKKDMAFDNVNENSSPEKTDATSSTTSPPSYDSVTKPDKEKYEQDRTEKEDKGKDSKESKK
Put plainly: Whole-cell voltage clamp electrophysiology assay. Conditions: cells stably expressing the voltage-gated sodium channel of interest. The format is cell-based. The essentials:
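Cells expressing full-length channel, exposed to drug by integrated pipetting on automated patch-clamp platforms or by microperfusion in conventional whole-cell patch clamp. Channels activated by a voltage protocol depolarising from a defined holding potential; buffers per platform manufacturer.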
Compound `Cc1cnccc1-c1cccc2c1C[C@H](NC(=O)c1ccc(OC(C)C)nc1)CO2` [Example 66, 6-isopropoxy-N-[(3S)-5-(3-methylpyridin-4-yl)-3,4-dihydro-2H-chromen-3-yl]nicotinamide] showed an IC50 of 158 nM.

On to `O=C(N[C@@H]1COc2cccc(-c3ccc(CO)nc3)c2C1)c1ccc(OCCOCC(F)(F)F)nc1` [Example 210, N-{(3S)-5-[6-(hydroxymethyl)pyridin-3-yl]-3,4-dihydro-2H-chromen-3-yl}-6-[2-(2,2,2-trifluoroethoxy)ethoxy]nicotinamide], for which the IC50 is 100 nM.

The compound `COc1ccc(-c2cccc3c2C[C@H](NC(=O)c2cnc(OCCC(F)(F)F)cn2)CO3)cn1` [Example 48, N-[(3S)-5-(6-methoxypyridin-3-yl)-3,4-dihydro-2H-chromen-3-yl]-5-(3,3,3-trifluoropropoxy)pyrazine-2-carboxamide] showed an IC50 of 631 nM.

The compound `CCOc1ccc(C(=O)N[C@@H]2COc3cccc(-c4ccncc4)c3C2)cn1` [Example 25, 6-ethoxy-N-[(3S)-5-pyridin-4-yl-3,4-dihydro-2H-chromen-3-yl]nicotin-amide] showed an IC50 of 2000 nM.

Compound `Cc1ncc(-c2cccc3c2C[C@H](NC(=O)c2ccc(OC(C)C)nc2)CO3)cn1` [Example 60, 6-isopropoxy-N-[(3S)-5-(2-methylpyrimidin-5-yl)-3,4-dihydro-2H-chromen-3-yl]nicotinamide] had an IC50 of 158 nM.

Compound `CC(C)Oc1ccc(C(=O)N[C@@H]2CCc3cccc(-c4ccnnc4)c3C2)cn1` [Example 78, 6-isopropoxy-N-[(2R)-8-pyridazin-4-yl-1,2,3,4-tetrahydronaphthalen-2-yl]nicotinamide] had an IC50 of 3160 nM.

Compound `O=C(N[C@@H]1COc2cccc(-c3ccncc3)c2C1)c1ccc(Cl)nc1` [Example 35, 6-chloro-N-[(3S)-5-pyridin-4-yl-3,4-dihydro-2H-chromen-3-yl]nicotinamide] showed an IC50 of 631 nM.

`CCCN(CCC)C(=O)c1ccc(C(=O)N[C@@H]2COc3cccc(-c4cnc(OC)nc4)c3C2)cn1` [Example 110, N^5-[(3S)-5-(2-methoxypyrimidin-5-yl)-3,4-dihydro-2H-chromen-3-yl]-N^2,N^2-dipropylpyridine-2,5-dicarboxamide]: inhibition was half-maximal at 2000 nM (IC50).

On to `CCc1ncc(-c2cccc3c2C[C@H](NC(=O)c2ccc(OCCOCC(F)(F)F)nc2)CO3)cn1` [Example 178, N-[(3S)-5-(2-ethylpyrimidin-5-yl)-3,4-dihydro-2H-chromen-3-yl]-6-[2-(2,2,2-trifluoroethoxy)ethoxy]nicotinamide], for which the IC50 is 63.1 nM.

The compound `Cc1cnc(-c2cccc3c2C[C@H](NC(=O)c2ccc(OCCOCC(F)(F)F)nc2)CO3)c(C)n1` [Example 202, N-[(3S)-5-(3,5-dimethylpyrazin-2-yl)-3,4-dihydro-2H-chromen-3-yl]-6-[2-(2,2,2-trifluoroethoxy)ethoxy]nicotinamide] gave an IC50 of 794 nM.

With `Cc1nn(-c2ccccc2)nc1C(=O)N[C@@H]1COc2cccc(-c3ccncc3)c2C1` [Example 23, 5-methyl-2-phenyl-N-[(3S)-5-pyridin-4-yl-3,4-dihydro-2H-chromen-3-yl]-2H-1,2,3-triazole-4-carboxamide], the IC50 is 1260 nM.

As to `COc1cc(-c2cccc3c2C[C@H](NC(=O)c2ccc(OCCC(F)(F)F)nc2)CO3)ccn1` [Example 59, N-[(3S)-5-(2-methoxypyridin-4-yl)-3,4-dihydro-2H-chromen-3-yl]-6-(3,3,3-trifluoropropoxy)nicotinamide], the midpoint of inhibition, the IC50, lay at 126 nM.

As to `COc1ncc(-c2cccc3c2C[C@H](NC(=O)c2cnc(OC(C)C)nc2C)CO3)cn1` [Example 92, 2-isopropoxy-N-[(3S)-5-(2-methoxypyrimidin-5-yl)-3,4-dihydro-2H-chromen-3-yl]-4-methylpyrimidine-5-carboxamide], the IC50 is 5010 nM.

Regarding `Cc1cnc(-c2cccc3c2C[C@H](NC(=O)c2ccc(OCCCF)nc2)CO3)c(C)n1` [Example 108, N-[(3S)-5-(3,5-dimethylpyrazin-2-yl)-3,4-dihydro-2H-chromen-3-yl]-6-(3-fluoropropoxy)nicotinamide], the IC50 is 3980 nM.

The compound `COc1ccc(-c2ccc(C(=O)N[C@@H]3COc4cccc(-c5ccncc5)c4C3)cn2)c(OC)c1` [Example 70, 6-(2,4-dimethoxyphenyl)-N-[(3S)-5-pyridin-4-yl-3,4-dihydro-2H-chromen-3-yl]nicotinamide] showed an IC50 of 1000 nM.

Consider `Cc1ncc(-c2cccc3c2C[C@H](NC(=O)c2ccc(OCCC(F)(F)F)nc2)CO3)cn1` [Example 61, N-[(3S)-5-(2-methylpyrimidin-5-yl)-3,4-dihydro-2H-chromen-3-yl]-6-(3,3,3-trifluoropropoxy)nicotinamide], for which half-maximal inhibition (IC50) was put at 50.1 nM.

Take `O=C(N[C@@H]1COc2cccc(-c3ccncc3)c2C1)c1ccc(OCC2CCO2)nc1` (stereo partly drawn) [Example 127, 6-(oxetan-2-ylmethoxy)-N-[(3S)-5-pyridin-4-yl-3,4-dihydro-2H-chromen-3-yl]nicotinamide]: half-maximal inhibition (IC50) required 3160 nM.

Compound `O=C(N[C@@H]1CCc2cccc(-c3ccncc3)c2C1)c1ccc(OCC(F)(F)F)nc1` [Example 12, N-[(2R)-8-pyridin-4-yl-1,2,3,4-tetrahydronaphthalen-2-yl]-6-(2,2,2-trifluoroethoxy)nicotinamide] gave an IC50 of 63.1 nM.

`COCCOc1ccc(C(=O)N[C@@H]2COc3cccc(-c4ccncc4C)c3C2)cn1` [Example 142, 6-(2-methoxyethoxy)-N-[(3S)-5-(3-methylpyridin-4-yl)-3,4-dihydro-2H-chromen-3-yl]nicotinamide] had an IC50 of 3160 nM.

As to `O=C(N[C@@H]1CCc2cccc(-c3ccncc3)c2C1)c1ccc(OS(=O)(=O)C(F)(F)F)cc1` [Example 3, 4-{[(2R)-8-Pyridin-4-yl-1,2,3,4-tetrahydronaphthalen-2-yl]carbamoyl}phenyl trifluoromethanesulfonate], the IC50 is 251 nM.

Consider `O=C(N[C@@H]1CCc2cccc(-c3ccncc3)c2C1)c1ccc(OCCC(F)(F)F)nc1` [Example 13, N-[(2R)-8-pyridin-4-yl-1,2,3,4-tetrahydronaphthalen-2-yl]-6-(3,3,3-trifluoropropoxy)nicotinamide], for which the IC50 is 39.8 nM.

In the case of `O=C(N[C@@H]1CCc2cccc(-c3cccnc3F)c2C1)c1ccc(OCC2COCCO2)nc1` (stereo partly drawn) [Example 164, 6-(1,4-dioxan-2-ylmethoxy)-N-[(2R)-8-(2-fluoropyridin-3-yl)-1,2,3,4-tetrahydronaphthalen-2-yl]nicotinamide], the IC50 was 1000 nM.

Compound `COc1ccc(-c2cccc3c2C[C@H](NC(=O)c2ccc(OC(C)C)nc2)CO3)cn1` [Example 76, 6-isopropoxy-N-[(3S)-5-(6-methoxypyridin-3-yl)-3,4-dihydro-2H-chromen-3-yl]nicotinamide] had an IC50 of 398 nM.

In turn, `O=C(N[C@@H]1COc2cccc(-c3ccncc3)c2C1)c1ccc(OCC(F)F)nc1` [Example 26, 6-(2,2-difluoroethoxy)-N-[(3S)-5-pyridin-4-yl-3,4-dihydro-2H-chromen-3-yl]nicotin-amide] gave an IC50 of 631 nM.
